The text below walks through data of patent US20080305118A1, “Treatment Of Type 1 Diabetes With Inhibitors Of Macrophage Migration Inhibitory Factor” (The Feinstein Institute for Medical Research, priority 2004, published 2008).

For one assay, the system named is iNOS. The assay can be described thus: Intracellular iNOS expression, cell-based ELISA. Format: in vivo, mouse. The conditions noted are these: macrophages from treated animals vs diabetic animals; FIG. 5A. The procedure: Cell incubation and determination of pro-inflamatory mediators. Resident peritoneal cells (PC), spleen mononuclear cells (SMNC), and pancreatic islets were isolated from individual anti-MIF IgG-treated, ISO-1-treated or control diabetic mice on day 15 after the first injection of STZ, as well as from normal untreated animals. […] Concentration of bioactive TNF-α in culture supernatant was determined as previously described (22) using a cytolytic bioassay with actinomycin D-treated fibrosarcoma cell line L929. Nitrite accumulation, an indicator of NO production, was determined in cell culture supernatant using the Griess reaction (22). The expression of intracellular MIF, IFN-γ, MHC II, or iNOS was determined by slight modification of cell-based ELISA protocol (23). […] After washing, the cells were incubated for 1 h with the corresponding secondary antibody (goat anti-rabbit Ig(H+L)-HRP, goat anti-rat Ig(H+L)-HRP or goat anti-mouse Ig(F(ab′)2-specific)-HRP washed again and incubated for 15 min at room temperature in dark with 50 μl of a solution containing 0.4 mg/ml OPD (Sigma), 11.8 mg/ml Na2HPO4×2H2O, 7.3 mg/ml citric acid and 0.015% H2O2. The reaction was stopped with 3N HCl, and the absorbance was measured in a microplate reader at 492 nm in a Titertek microplate reader (Flow).
Background: ELISA stands for enzyme-linked immunosorbent assay.

The test system of assay [1] is pancreatic islets of MLD-STZ diabetic mice. The experiment in a line: Histological examination of pancreas, insulitis score. Format: in vivo, mouse. The conditions noted are these: CBA/H mice; day 15; FIG. 2D. The procedure:
Histological and immunohistochemical examination of pancreas. Pancreata were fixed in neutral buffered formalin and then embedded in paraffin. The fixed blocks were sectioned (7 μm thick) and haematoxylin and eosin staining was performed to assess the incidence and degree of inflammatory changes. Insulitis scoring was performed as previously described (10, 11) by examining at least 15 islets per mouse and graded in a blinded fashion as follows: 0, no infiltrate; 1, peri-ductal infiltrate; 2, peri-islet infiltrate; 3, intraislet infiltrate; and 4, intraislet infiltrate associated with β-cell destruction. At least 15 islets were counted for each mouse. A mean score for each pancreas was calculated by dividing the total score by the number of islets examined. Insulitis scores (IS) are expressed as mean values±SD. Immunohistochemistry was performed on paraffin-embedded sections of formalin-fixed tissue using a previously described microwave-based method (24). For MIF immunostaining, a polyclonal rabbit anti-MIF IgG and control rabbit IgG were used. The examined area of the islet was outlined, and the percentage of MIF-positive islet cells was measured using quantitative Image Analysis System (Optima 6.5, Media Cybernatics, Silver Springs, Md.).

For assay [2], the system named is MLD-STZ-induced diabetic mice. The experiment in a line: MLD-STZ-induced diabetes, weekly blood glucose, prophylactic treatment. Format: in vivo, mouse. The conditions noted are these: CBA/H mice; prophylactic i.p. treatment; FIG. 2B. The method, then: Diabetes induction and in vivo treatments. Diabetes was induced in adult male mice with multiple subtoxic doses of streptozotocin (MLD-STZ, 40 mg/kg body wt/day i.p. for five consecutive days) as described (21). The impact of polyclonal antibody against MIF was studied by i.p. injection of mice (5-10 per treatment group) with 5 mg/kg of rabbit IgG antibody against mouse […] on days −3, −1, 2 and 5 in relation to the first STZ dose. The effect of ISO-1 was studied by i.p. injection of the drug at a dose of 1 mg/mouse/day, for 14 consecutive days, starting 3 days prior to the first injection with STZ. Control animals received either nonimmune IgG or ISO-1 diluent (DMSO/H2O). Mice were monitored for diabetes by weekly measurement of blood glucose levels using a glucometer (Sensimac®, Imaco, Ludersdorf, Germany). Clinical diabetes was defined by hyperglycemia in non-fasted animals (blood glucose over 11.8 mmol/l).

Assay [3] has as its system spleen mononuclear cells (SMNC). The experiment in a line: Ex vivo lymphoproliferative response (3H-thymidine incorporation) after in vivo treatment. Details: species or system mouse. To be noted: CBA/H mice treated in vivo; splenocytes day 15 after MLD-STZ; FIG. 3A. The method, then: (§1) Ex vivo lymphoproliferative response and adhesion assay. Spontaneous proliferation of SMNC was determined by incubation of cells (5×10^5/well) from each individual animal in 96-well microplates with 1 μCi ^3H-thymidine (^3H-TdR, ICN). Incorporated radioactivity was measured after 24 h in a Beckman liquid scintillation counter. The analysis of spontaneous adhesion of SMNC (2.5×10^5/well) to a monolayer of L929 fibroblasts or plastic was performed by using crystal violet assay as previously described (21). The absorbance corresponding to the number of adherent cells, was measured at 570 nm.
In general terms: Incorporation of labelled thymidine or its analogues reports DNA synthesis.

Another assay addresses T1, MIF tautomerase (Homo sapiens, UniProt P14174).
T1 sequence (P14174 2-115 limits assumed): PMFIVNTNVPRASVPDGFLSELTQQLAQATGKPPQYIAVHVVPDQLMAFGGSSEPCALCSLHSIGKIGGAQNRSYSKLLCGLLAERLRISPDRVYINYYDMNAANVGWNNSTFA
To be noted: reference (20); cited from earlier work.

The subject of a further assay is TNF-α. The experiment in a line: Ex vivo TNF-α production, L929 cytolytic bioassay of culture supernatants. Format: in vivo, mouse. To be noted: day 15, 48 h culture, FIG. 4. The procedure: Cell incubation and determination of pro-inflamatory mediators. Resident peritoneal cells (PC), spleen mononuclear cells (SMNC), and pancreatic islets were isolated from individual anti-MIF IgG-treated, ISO-1-treated or control diabetic mice on day 15 after the first injection of STZ, as well as from normal untreated animals. SMNC (5×10^6/well) prepared by Ficoll gradient centrifugation, resident PC (2.5×10^5/well) collected by peritoneal lavage with cold PBS, or pancreatic islets (150-200 islets/well) prepared by collagenase digestion and density gradient purification as described (22), were incubated in 24-well Limbro culture plates in 1 ml of RPMI-1640 culture medium containing 5% fetal bovine serum (FBS) and cell supernatants were collected after 48 h. Concentration of bioactive TNF-α in culture supernatant was determined as previously described (22) using a cytolytic bioassay with actinomycin D-treated fibrosarcoma cell line L929. Nitrite accumulation, an indicator of NO production, was determined in cell culture supernatant using the Griess reaction (22). The expression of intracellular MIF, IFN-γ, MHC II, or iNOS was determined by slight modification of cell-based ELISA protocol (23). Spleen MNC (5×10^5/well) or PC (2.5×10^5/well), were allowed to adhere to poly-L-lysine-precoated 96-well microplates. Following fixation with 4% paraformaldehyde, and washing with 0.1% Triton X-100 in PBS (T/PBS), endogenous peroxidase was quenched with 1% H2O2 in T/PBS, and reaction blocked for 1 h at 37° C. with 10% FBS in T/PBS. […] After washing, the cells were incubated for 1 h with the corresponding secondary antibody (goat anti-rabbit Ig(H+L)-HRP, goat anti-rat Ig(H+L)-HRP or goat anti-mouse Ig(F(ab′)2-specific)-HRP washed again and incubated for 15 min at room temperature in dark with 50 μl of a solution containing 0.4 mg/ml OPD (Sigma), 11.8 mg/ml Na2HPO4×2H2O, 7.3 mg/ml citric acid and 0.015% H2O2. The reaction was stopped with 3N HCl, and the absorbance was measured in a microplate reader at 492 nm in a Titertek microplate reader (Flow).

The subject of assay [4] is spleen mononuclear cells (SMNC). The experiment in a line: Ex vivo spontaneous adhesion assay (crystal violet) after in vivo treatment. Also on record: species or system mouse. To be noted: SMNC from mice treated in vivo, FIG. 3B. The procedure:
as §1

Setting [5] is: cells from mice treated in vivo.

As to `COC(=O)C[C@@H]1CC(c2ccc(O)cc2)=NO1` (racemic) [ISO-1, (S,R)-3-(4-hydroxyphenyl)-4,5-dihydro-5-isoxazole acetic acid methyl ester], the “intracellular expression of iNOS in macrophages” value with iNOS was “significantly reduced”. In assay [1], the “degree of islet infiltration (insulitis)” value is on record as “attenuated inflammation of the islets”. For the same compound, in assay [2], the “MLD-STZ-induced hyperglycemia (blood glucose levels)” value is on record as “remained euglycemic”. The “SMNC proliferation, 3H-thymidine incorporation” value in assay [3] is 25637±2018 cpm. For the same compound, on MIF tautomerase, the “MIF tautomerase and biological activity” value is on record as “inhibits”. Besides, in the assay with TNF-α (setting [5]), the “TNF-α production by peritoneal macrophages” value is on record as “down-regulated” and the “TNF-α production by spleen MNC” value is given as “down-regulated”. The “TNF-α production by pancreatic islet cells” value in the assay with TNF-α (islets from mice treated in vivo) is listed as “down-regulated”. For the same compound, the “spontaneous adhesion of SMNC to plastic” value in assay [4] was “significantly inhibited”. Moreover, the “adhesion of SMNC to fibroblasts” value in assay [4] (L929 fibroblasts) is “significantly inhibited”.
